Results from publication PMC6081452, “Downstream Products are Potent Inhibitors of the Heparan Sulfate 2-O-Sulfotransferase” (Scientific Reports, 2018).
Substitutions are numbered along the chain they refer to.

How the values were obtained:
Design in all cases: species or system chicken
non-glyc-HS2ST H142K = target: T1, non-glyc-HS2ST H142K (Gallus gallus, UniProt Q76KB1, H142K); assay: BLI equilibrium binding, non-glyc-HS2ST H142K; details: BLI saturation binding curves, n = 3, ± standard error of fit
T1 construct: made in house; host or cells: E. coli Origami B (DE3)
T1 sequence (Q76KB1 69-356 H142K limits assumed): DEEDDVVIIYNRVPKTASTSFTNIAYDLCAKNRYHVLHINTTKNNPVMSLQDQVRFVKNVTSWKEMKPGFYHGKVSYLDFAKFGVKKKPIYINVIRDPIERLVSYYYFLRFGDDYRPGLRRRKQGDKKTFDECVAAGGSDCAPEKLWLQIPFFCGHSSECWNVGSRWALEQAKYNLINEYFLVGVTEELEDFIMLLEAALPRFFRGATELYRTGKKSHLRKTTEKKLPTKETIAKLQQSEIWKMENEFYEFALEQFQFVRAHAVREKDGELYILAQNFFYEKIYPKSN
Source text: (§1) To assess whether the inhibitory compounds interact with the active site, point mutations were introduced in non-glyc-HS2ST (Fig. 4a). Four mutants of the catalytic residue (H142A/E/R/K) were created, along with a mutation of the residue that facilitates 2-O-sulfation of IdoA residues (R189A)[27]. Additionally, a negative control (NC) was generated containing multiple mutations of positively charged residues (R189A, R80E, and R184E) that reduced the net charge of each protein monomer by 5. The extent that the mutations affected affinity provided an indication that the ligand had been bound in the active site (Table 1 and Supplementary Fig. 1). While R189A markedly diminished the affinity for all compounds, the NC mutations reduced affinity to immeasurable levels. Removal of the catalytic side chain (H142A) enhanced the affinity of each compound, compared to the WT, by approximately 2–3-fold. Addition of a positive charge at this location (H142K/R) further enhanced the affinity for each compound, so much so that a KD value could be measured even for 2. The H142E mutation diminished the affinity of 5 by half compared to WT, but its effects were less significant for binding to 3 or 4.
(§2) The chicken HS2ST-Maltose Binding Protein (MBP) fusion protein was expressed and purified according to previous studies. The fusion protein was transformed into E. coli Origami B (DE3) cells, cultured at 37 °C until OD600 reached 0.5, then induced with isopropyl-β-D-thiogalactopyranoside and allowed to grow overnight at 20 °C. Cells were sonicated, followed by a two-step purification procedure. Whole-cell supernatant was passed through an amylose column with Tris buffer (25 mM Tris, 500 mM NaCl, pH 7.5). An elution buffer consisted of Tris Buffer with 40 mM Maltose. The amylose column eluent was concentrated and loaded on a Superdex 200 Increase 10/300 GL with PBS buffer (10 mM sodium phosphate, 150 mM NaCl, pH 7.8) to separate trimeric protein from aggregate and independent MBP (Supplementary Fig. 4). All reported mutations formed homotrimeric complexes according to the SEC profiles, including the negative control (NC = R189A/R80E/R184E). Protein concentration was assessed via UV at 280 nm (MW of trimer ~210 KDa, extinction coefficient ~119,000 M^−1 cm^−1 according to ExPASy ProtParam webtool[56]). The trimeric protein preparation was adjusted to 5% glycerol and stored at −20 °C until use. Additional non-glyc-HS2ST constructs were created with the Q5® Mutagenesis kit (New England Biolabs Inc.; cat. # E0554S) and sequenced at the Georgia Genomics Facility at the University of Georgia.
(§3) The Octet® RED96 system (FortéBio Inc.) was employed to detect the affinity of the enzymes for specific HS targets. […]

non-glyc-HS2ST H142R = target: T2, non-glyc-HS2ST H142R (Gallus gallus, UniProt Q76KB1, H142R); assay: BLI equilibrium binding, non-glyc-HS2ST H142R; details: BLI saturation binding curves, n = 3, ± standard error of fit
T2 construct: made in house; host or cells: E. coli Origami B (DE3)
T2 sequence (Q76KB1 69-356 H142R limits assumed): T1 sequence (Q76KB1 69-356 H142K limits assumed) with K74R
Source text: as §1, §2, §3

non-glyc-HS2ST H142E = target: T3, non-glyc-HS2ST H142E (Gallus gallus, UniProt Q76KB1, H142E); assay: BLI equilibrium binding, non-glyc-HS2ST H142E; details: for Kd: BLI saturation binding curves, n = 3, ± standard error of fit, — = response too weak to fit
T3 construct: made in house; host or cells: E. coli Origami B (DE3)
T3 sequence (Q76KB1 69-356 H142E limits assumed): T1 sequence (Q76KB1 69-356 H142K limits assumed) with K74E
Source text: as §1, §2
The Octet® RED96 system (FortéBio Inc.) was employed to detect the affinity of the enzymes for specific HS targets. Due to the small size of the glycan and the deep HS2ST binding cavity, the glycan and protein were treated as ligand and analyte, respectively. Varyingly sulfated HS fragments conjugated to biotin linkers were purchased from Glycan Therapeutics Inc. with purities greater than 93% according to HPLC (sequences located in Supplementary Table 1). The glycans were immobilized onto streptavidin (SA) labeled biosensors (FortéBio; cat. #18–5019) at 0.5 µg/mL. Experiments were performed at 25 °C in PBS Buffer (10 mM sodium phosphate, 150 mM NaCl, pH 7.8) with a final concentration of 1X Pall Kinetics buffer (FortéBio Inc; cat. #18–1092). Fresh biosensors and protein samples were used for each measurement (no regeneration step). […]

Row | Substance | Kd (non-glyc-HS2ST H142K) [nM] | Kd (non-glyc-HS2ST H142R) [nM] | Kd (non-glyc-HS2ST H142E) [nM] | Diminution of affinity by H142E compared to WT (non-glyc-HS2ST H142E; non-glyc-HS2ST H142E versus WT, BLI)
1 | GlcNS-GlcA-GlcNS-IdoA2S-GlcNS-GlcA~ [Compound 2] | 198 ± 34 | 136 ± 20 | > 500 | –
2 | GlcNS6S-GlcA-GlcNS6S-IdoA2S-GlcNS6S-GlcA~ [Compound 3] | 15 ± 2 | 12 ± 1 | 41 ± 4 | –
3 | GlcNS6S-GlcA-GlcNS6S-GlcA-GlcNS6S-GlcA~ [Compound 5] | 22 ± 2 | 13 ± 1 | 140 ± 11 | half
4 | GlcNS6S-GlcA-GlcNS3S6S-IdoA2S-GlcNS6S-GlcA~ [Compound 4] | 11 ± 2 | 10 ± 1 | 19 ± 3 | –
